The structures appear in SMILES notation. Residues, ends and D or L forms follow the SMILES beside them.

In the case of `CC(C)(C(C#N)=NO)S(C)(=O)=O`, the melting point fell in the range of 139 to 141 °C. Turning to `O=c1ccc(S(=O)(=O)n2ccc3ccccc32)n[nH]1`, the melting point was 169 to 170 °C. The compound `CC(C)NS(=O)(=O)c1ccc(N2CCC(N3C(=O)OCc4ccccc43)CC2)c([N+](=O)[O-])c1` had a melting point of 168 °C. `CCOC(=O)c1cnc2c(NC(=O)c3c(Cl)cccc3Cl)cccc2c1CSc1ncc[nH]1` showed a melting point of 120 to 123 °C. For `Oc1ccc(O)c(-c2nc3ccc(O)cc3o2)c1`, the melting point was in the range of 278 to 280 °C.

On to `COc1cccc(-n2c(-c3sc(NC(=O)c4ccccc4)nc3-c3ccccc3)nc3ccccc3c2=O)c1`, for which the melting point was 195 to 196 °C. As to `C=C(F)c1c[nH]c(=O)[nH]c1=O`, the melting point lay in the range of 235 to 238 °C. `O=Cc1ccc(-c2cc3c4c(c2)cc(F)n4C(=O)CNC3)cc1` yielded a melting point of 212 to 214 °C. Consider `CC(=O)N1c2c(ccn3c(C)c(C)nc23)C(=O)[C@H](OC(=O)C(C)(C)C)[C@H]1c1ccccc1`, for which the melting point was in the range of 168 to 170 °C. As for `O=C(c1ccc2nonc2c1)N1Cc2cccnc2Nc2ccccc21`, the melting point fell in the range of 193 to 194 °C. Consider `CSCCC(N)C(=O)NC(CCSC)C(=O)O` (stereo not drawn) (H-Met-Met-OH; configuration not given here), for which the melting point lay within 234 to 236 °C. Consider `COc1c(C)c2c(c(O)c1C/C=C(/Cl)CCC(=O)O)C(=O)OC2`, for which the melting point lay within 135 to 137 °C. As to `COCCOCc1c(CN(C)C[C@@H](O)c2ccco2)sc2c(=O)c(C(=O)NCc3ccc(Cl)cc3)cn(C)c12`, the melting point was in the range of 146 to 147 °C.

Take `CS(=O)(=O)NC[C@@H]1CN(c2ccc(N3CCC(=CC#N)CC3)c(F)c2)C(=O)O1`: the melting point lay within 235 to 237 °C. In the case of `CN1CC(=O)N2CCC[C@H]2C1=O`, the melting point was 133 to 135 °C. To `c1ccc(C(c2ccc3[nH]cnc3c2)n2ccnc2)cc1` (stereo not drawn) belongs 186 °C; to `CC(O)(Cc1cnc(Cl)s1)c1ccc(Cl)cc1Cl` (stereo not drawn), 164 °C.

Turning to `O=C(NC(Cc1c[nH]c2ccccc12)C(=O)Oc1c(F)c(F)c(F)c(F)c1F)OCc1ccccc1` (stereo not drawn), the melting point was 169 to 170 °C. Compound `CC1(C)Oc2ccc(C#N)cc2C2C1OC(=O)CN2c1ccccc1` (stereo not drawn) came in with a melting point of 241 to 243 °C. Next, `COS(=O)(=O)CS(C)(=O)=O`: 101 to 104 °C; `CN(Cc1ccc(NC(=O)C2=Cc3cc(OCc4cccnc4)ccc3S(=O)(=O)CC2)cc1)C1CCOCC1`: 225 to 229 °C. `NC(=S)Nc1ccc2ccccc2c1` returned a melting point of 190 to 192 °C. To `c1ccc2c(c1)Cn1ccnc1CN2` belongs 164 to 170 °C.

On to `CC(=O)ON=C(N)c1ccc(C(=O)N2CCN(C(=O)[C@@H]3CCCN3S(=O)(=O)c3ccc(Cl)c(COc4cccn5c(C)c(C)nc45)c3Cl)CC2)cc1`, for which the melting point lay in the range of 142 to 145 °C. The compound `CCCn1ncc2c(=O)[nH]c(-c3cc(C(=O)N4CCN(C)CC4)ccc3OCC)nc21` had a melting point of 124 to 127 °C. As to `CCCOc1ccc2c(c1)C(c1ccc(OC)cc1-c1cccc(C(=O)O)c1)C(C(=O)O)C2c1ccc2c(c1)OCO2` (stereo not drawn), the melting point was in the range of 257 to 268 °C.

For the compound `Cc1cc(C(=N)NO)cn2cc(-c3cccc(-c4ccc(C(=N)NO)cc4)c3)nc12`, the melting point was in the range of 193 to 195 °C.

`COC1=C(c2csc(NC(=O)c3cc4ccccc4[nH]3)n2)C=CC(Cl)(OC)C1` (stereo not drawn) returned a melting point of 293 °C. Next, `C#CCN(c1c(Br)cc(Br)cc1Br)[N+](=O)[O-]`: 58 to 58.5 °C. With `COC(=O)c1ccc(-c2nc(NCc3ccc(OC)c(Cl)c3)c3c(n2)sc2ccccc23)cc1`, the melting point lay within 203 to 204 °C. As to `Cc1cc(-c2noc(C)c2-c2ccc(S(C)(=O)=O)c(F)c2)ccc1-c1cscn1`, the melting point came out at 99.5 °C. `O=C1c2cc(N3CCN(Cc4ccccc4)CC3)ccc2OC12CC2` came in with a melting point of 125 to 126 °C. In turn, `CN(C)c1ccc(/C=C/c2cccc(F)c2)cc1` displayed a melting point of 147 to 148 °C.

For the origin of these results see a melting point compilation (Tetko et al.; mined from patent text by program, amines drawn as free bases though some values may be those of a salt).
